Laboratory results as given in PubChem BioAssay (NCI).
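Results reflect a 48-hour exposure of cells in 96-well plates to compound at five concentrations. GI50 = concentration required for 50% inhibition of growth. TGI: concentration producing complete growth inhibition.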

Assays:
Assay in all cases: NCI anticancer screen, dose series, 48 h
A498 renal = system: A498 renal
SF-295 CNS = system: SF-295 CNS
KM12 colon = system: KM12 colon
U251 CNS = system: U251 CNS
HL-60(TB) leukemia = system: HL-60(TB) leukemia
SW-620 colon = system: SW-620 colon
OVCAR-4 ovarian = system: OVCAR-4 ovarian
COLO 205 colon = system: COLO 205 colon
NCI-H226 lung = system: NCI-H226 lung
HS 578T breast = system: HS 578T breast

| SMILES | TGI (A498 renal) | TGI (SF-295 CNS) | TGI (KM12 colon) | TGI (U251 CNS) | TGI (HL-60(TB) leukemia) | TGI (SW-620 colon) | TGI (OVCAR-4 ovarian) | TGI (COLO 205 colon) | TGI (NCI-H226 lung) | GI50 (A498 renal) | GI50 (SF-295 CNS) | GI50 (KM12 colon) | GI50 (U251 CNS) | GI50 (SW-620 colon) | GI50 (OVCAR-4 ovarian) | GI50 (COLO 205 colon) | GI50 (HS 578T breast) | TGI (HS 578T breast) | GI50 (NCI-H226 lung) | GI50 (HL-60(TB) leukemia) |
| --- | --- | --- | --- | --- | --- | --- | --- | --- | --- | --- | --- | --- | --- | --- | --- | --- | --- | --- | --- | --- |
| O=CN/C=C/c1ccccc1 | > 100 µM | > 100 µM | > 100 µM | > 100 µM | > 100 µM | > 85.6 µM | > 100 µM | > 100 µM | > 100 µM |  |  |  |  |  |  |  |  |  |  |  |
| C=CCCn1nc(-c2ccccc2)oc1=O | > 100 µM | > 100 µM | > 100 µM | > 100 µM | > 100 µM | > 100 µM | > 100 µM | > 100 µM | > 100 µM |  |  |  |  |  |  |  |  |  |  |  |
| O=C(Nc1ccc(Cl)c(C(F)(F)F)c1)Nc1ccc(-c2cccnc2)cc1N1CCC(CO)CC1 | 4.42 µM | 5.15 µM | 6.44 µM | 7.1 µM |  | 27.2 µM | > 100 µM | 3.18 µM | 9.79 µM | 1.26 µM | 2.11 µM | 2.2 µM | 2.41 µM | 2.76 µM | 2.97 µM | 1.65 µM | 2.79 µM | 8.46 µM | 2.68 µM |  |
| O=C1CCCc2ccc([N+](=O)[O-])c(O)c21 | > 100 µM | > 100 µM | > 100 µM | > 100 µM | > 100 µM | > 100 µM | > 100 µM | > 100 µM | > 100 µM |  |  |  |  |  |  |  |  |  |  |  |
| O=Cc1ccc(-c2ccc(-c3nc4ccccc4s3)cc2)o1 | 18.8 µM | > 100 µM | > 100 µM | > 100 µM |  | > 100 µM | > 100 µM | > 100 µM | > 100 µM | 3.21 µM | 41.7 µM | 46.5 µM | 35.2 µM | 89 µM | > 100 µM | > 100 µM | > 100 µM | > 100 µM | 5.03 µM |  |
| C[C@@H]1CC[C@@]2(C)OC(c3ccccc3)[C@H](CO)N2C1=O (stereo not given in full) | > 100 µM | > 100 µM | > 100 µM | > 100 µM |  | > 100 µM | > 100 µM | > 100 µM |  |  |  |  |  |  |  |  |  |  |  |  |
| COc1ccc2cc3c4cc(OC)c(OC)cc4ccn3c2c1 | > 100 µM | > 100 µM | > 100 µM | > 100 µM | > 100 µM | > 100 µM | > 100 µM | > 100 µM | > 100 µM |  |  |  |  |  |  |  |  |  |  |  |
| O/N=C1/CCCC/C1=C\c1ccc(Cl)c(Cl)c1 | 84.5 µM | > 100 µM |  | 38.9 µM | 23 µM | > 100 µM | 59.3 µM | 38.9 µM |  |  |  |  |  |  |  |  |  |  |  |  |
| COc1ccc(/C=C/c2onc3c(=O)n(C)nc(-c4ccccc4)c23)cc1 |  |  |  | > 100 µM | > 100 µM | > 100 µM |  | > 100 µM |  |  |  |  |  |  |  |  |  |  |  |  |
| NC1=NN(c2ccccc2)C(=O)C1C(=O)C(=O)Nc1ccccc1 (stereo not given) | > 100 µM | > 100 µM | > 100 µM | > 100 µM | > 100 µM | > 100 µM | > 100 µM | > 100 µM | > 100 µM |  |  |  |  |  |  |  |  |  |  |  |
| N#Cc1c(N)nc2c(c1-c1ccc(Cl)cc1)COc1ccc(F)cc1-2 | 52.3 µM | 37.1 µM | 80 µM | > 100 µM | 53.4 µM | 97.4 µM | > 100 µM |  |  | 22.3 µM | 16 µM | 29.4 µM | 31.7 µM | 31.1 µM | 34.7 µM |  |  |  |  | 26.5 µM |
| O=C(O)c1cnc2c(ccc3[nH]cccc32)c1=O | > 100 µM |  | > 100 µM | > 100 µM | > 100 µM | > 100 µM | > 100 µM | > 100 µM |  |  |  |  |  |  |  |  |  |  |  |  |
| CCN1/C(=C/C(C)=C/c2sc3ccc4ccccc4c3[n+]2CC)Sc2ccc3ccccc3c21 | 0.759 µM | 0.674 µM | 0.276 µM | 0.336 µM | 2.68 µM | 0.277 µM | 1.26 µM |  | 1.27 µM | 0.181 µM | 0.121 µM | 0.136 µM | 0.108 µM | 0.114 µM | 0.138 µM |  |  |  | 0.225 µM | 0.106 µM |
| COC(=O)CCc1n(Cc2ccc3ccccc3c2)c2ccccc2[n+]1Cc1ccc2ccccc2c1 | 3.45 µM | 2.86 µM | 2.12 µM | 2.3 µM | 0.799 µM | 2.85 µM | 1.89 µM | 2.21 µM |  | 1.53 µM | 1.32 µM | 0.685 µM | 1.04 µM | 1.27 µM | 0.315 µM | 0.614 µM | 1.43 µM | 3.47 µM |  | 0.207 µM |
| CCOC(=O)C1CC(=O)C=C2CCCCC21 (stereo not given) | > 100 µM | > 100 µM | > 100 µM | > 100 µM | > 100 µM | > 100 µM | > 100 µM | > 100 µM |  |  |  |  |  |  |  |  |  |  |  |  |
| COc1ccc2c(n1)Sc1nc3ccccc3nc1N2 | > 100 µM | > 100 µM | > 100 µM | 52.7 µM |  | > 100 µM | > 100 µM | > 100 µM | 34 µM |  |  |  |  |  |  |  |  | > 100 µM |  |  |
| COc1cc2c3c(n(CCCN=[N+]=[N-])c(=O)c2cc1OC)-c1ccc([N+](=O)[O-])cc1C3=O | > 100 µM | > 100 µM | > 100 µM | > 100 µM | > 100 µM | > 100 µM | > 100 µM | > 100 µM |  | 96.7 µM | > 100 µM | > 100 µM | > 100 µM | 55.3 µM | > 100 µM | > 100 µM | 48 µM | > 100 µM |  | > 100 µM |
| CC(=O)N1c2ccccc2N(C(C)=O)C1c1ccc(C2N(C(C)=O)c3ccccc3N2C(C)=O)[nH]1 | > 100 µM | > 100 µM | > 100 µM | > 100 µM | > 100 µM | > 100 µM | > 100 µM | > 100 µM | > 100 µM |  |  |  |  |  |  |  |  |  |  |  |
| CCOC(=O)NC(=O)c1cn(CCSCCOC(=O)NCCCCCCNC(=O)OCCSCCn2cc(C(=O)NC(=O)OCC)c(=O)n(C)c2=O)c(=O)n(C)c1=O |  | > 100 µM |  | 40.3 µM | 43 µM | > 100 µM |  | > 100 µM | 73.8 µM |  |  |  |  |  |  |  |  |  |  |  |
| Cn1cnc([N+](=O)[O-])c1Sc1n[nH]c(-c2ccc(Cl)cc2)n1 | 56.1 µM | 58.8 µM | 39.2 µM | 48.9 µM |  | 78 µM | 57.4 µM | 30.9 µM | 34.5 µM |  |  |  |  |  |  |  |  |  |  |  |
| COc1ccc(C2(Cl)C(Cl)(C(F)(F)F)C2(Cl)C(F)(F)F)cc1 (stereo not given) |  | 29 µM | 27 µM | 28.2 µM | 54.9 µM | 33.1 µM | 30 µM | 29.3 µM | 28.9 µM |  |  |  |  |  |  |  |  |  |  |  |
